Measurements from patent US7511013B2, “Cyclosporin analogues and their pharmaceutical uses” (AMR Technology, Inc., priority 2004, dated 2009).
*1 amine or outer side, *2 acyl side, *3 side chain or, on linkers, in order; H or OH if unused. Where a SMILES comes first, the peptide text is derived from it. [ ]: non-standard residue; d: D form. X1 = C=C/C=C/C[C@@H](C)[C@@H](O)[C@@H](C(=O)[*:2])N(C)[*:1]; X3 = C[C@H](C/C=C/Cl)[C@@H](O)[C@@H](C(=O)[*:2])N(C)[*:1]; X2 = C[C@H](C/C=C/I)[C@@H](O)[C@@H](C(=O)[*:2])N(C)[*:1]; NMeL = CN[C@@H](CC(C)C)C(=O)O; NMeV = CN[C@H](C(=O)O)C(C)C; dNMeS = CN[C@H](CO)C(=O)O; Abu = CC[C@H](N)C(=O)O

System: concanavalin A-stimulated splenocytes
Experiment: Concanavalin A-stimulated splenocyte assay ([3H]thymidine incorporation)
Assay type: cell-based, BALB/c mice
Details: not given
Description: Male BALB/c mice, at 5 to 7 weeks of age, were sacrificed by CO2 inhalation. Spleens were removed and dissociated by pushing through a nylon cell strainer. The splenocytes were washed in RPMI 1640/5% fetal calf serum (FCS) and pelleted at 400×g. Red blood cells were then lysed by resuspending the cell pellet in ACK lysis buffer (150 mM NH4Cl, 1 mM KHCO3, 0.1 mM EDTA, 3 mL per spleen) for 10 min at room temperature. After pelleting at 400×g, the cells were washed by resuspending in RPMI 1640/5% FCS and repelleting. The cell pellet was resuspended in RPMI 1640/5% FCS and again passed through a cell strainer to remove cell aggregates. The cells were then counted and adjusted to 2×10^6 cells/ml in RPMI 1640/10% FCS/50 μM 2-mercaptoethanol. Cell viability was assessed by Trypan blue staining. […] The cells were cultured in a 37° C. CO2 incubator for 2 days and then pulsed with 1 μCi of [^3H]thymidine for 6 hours. Cells were harvested onto filtermats with a TomTec 96 well plate harvester and lysed with H2O. The filtermat and scintillation fluid were sealed in a plastic sleeve. [^3H]thymidine incorporation was measured with a Wallac Trilux plate counter. Initial screens were done at a fixed value of 100 ng/ml test compound. IC50s were calculated from 7 point concentration-response curves using GraphPad software.

SMILES | IC50 (ng/mL), immunosuppressive activity of novel cyclosporin analogue compound
CC[C@@H]1NC(=O)[C@H]([C@H](O)[C@H](C)C/C=C/I)N(C)C(=O)[C@H](C(C)C)N(C)C(=O)[C@H](CC(C)C)N(C)C(=O)[C@H](CC(C)C)N(C)C(=O)[C@@H](C)NC(=O)[C@H](C)NC(=O)[C@H](CC(C)C)N(C)C(=O)[C@H](C(C)C)NC(=O)[C@H](CC(C)C)N(C)C(=O)CN(C)C1=O [Example 6, cyclosporin vinyl iodide] | 11 ng/mL
CC[C@@H]1NC(=O)[C@H]([C@H](O)[C@H](C)CC=CCF)N(C)C(=O)[C@H](C(C)C)N(C)C(=O)[C@H](CC(C)C)N(C)C(=O)[C@H](CC(C)C)N(C)C(=O)[C@@H](C)NC(=O)[C@H](C)NC(=O)[C@H](CC(C)C)N(C)C(=O)[C@H](C(C)C)NC(=O)[C@H](CC(C)C)N(C)C(=O)CN(C)C1=O [Example 34, cyclosporin allylic fluoride] | 12 ng/mL
CC[C@@H]1NC(=O)[C@H]([C@H](O)[C@H](C)CC=CC(F)(F)F)N(C)C(=O)[C@H](C(C)C)N(C)C(=O)[C@H](CC(C)C)N(C)C(=O)[C@H](CC(C)C)N(C)C(=O)[C@@H](C)NC(=O)[C@H](C)NC(=O)[C@H](CC(C)C)N(C)C(=O)[C@H](C(C)C)NC(=O)[C@H](CC(C)C)N(C)C(=O)CN(C)C1=O [Example 31, cyclosporin fluoride] | 38 ng/mL
CC[C@@H]1NC(=O)[C@H]([C@H](O)[C@H](C)C/C=C/Br)N(C)C(=O)[C@H](C(C)C)N(C)C(=O)[C@H](CC(C)C)N(C)C(=O)[C@H](CC(C)C)N(C)C(=O)[C@@H](C)NC(=O)[C@H](C)NC(=O)[C@H](CC(C)C)N(C)C(=O)[C@H](C(C)C)NC(=O)[C@H](CC(C)C)N(C)C(=O)CN(C)C1=O [Example 19, trans-cyclosporin vinyl bromide] | 9 ng/mL
CC[C@@H]1NC(=O)[C@H]([C@H](O)[C@H](C)C/C=C/I)N(C)C(=O)[C@H](C(C)C)N(C)C(=O)[C@H](CC(C)C)N(C)C(=O)[C@H](CC(C)C)N(C)C(=O)[C@@H](C)NC(=O)[C@H](C)NC(=O)[C@H](CC(C)C)N(C)C(=O)[C@H](C(C)C)NC(=O)[C@H](CC(C)C)N(C)C(=O)CN(C)C1=O [Example 9, trans-deuterated cyclosporin vinyl iodide] | 7 ng/mL
CC[C@@H]1NC(=O)[C@H]([C@H](O)[C@H](C)C/C=C/Cl)N(C)C(=O)[C@H](C(C)C)N(C)C(=O)[C@H](CC(C)C)N(C)C(=O)[C@H](CC(C)C)N(C)C(=O)[C@@H](C)NC(=O)[C@H](C)NC(=O)[C@H](CC(C)C)N(C)C(=O)[C@H](C(C)C)NC(=O)[C@H](CC(C)C)N(C)C(=O)[C@@H](CO)N(C)C1=O [Example 71, cyclosporin vinyl chloride] (cyclo([X3][Abu][dNMeS][NMeL]V[NMeL]A[dA][NMeL][NMeL][NMeV])) | 8 ng/mL
CCON=C/C=C/C[C@@H](C)[C@@H](O)[C@H]1C(=O)N[C@@H](CC)C(=O)N(C)CC(=O)N(C)[C@@H](CC(C)C)C(=O)N[C@@H](C(C)C)C(=O)N(C)[C@@H](CC(C)C)C(=O)N[C@@H](C)C(=O)N[C@H](C)C(=O)N(C)[C@@H](CC(C)C)C(=O)N(C)[C@@H](CC(C)C)C(=O)N(C)[C@@H](C(C)C)C(=O)N1C [Example 58, cyclosporin oxime] | 42 ng/mL
C=C/C=C/C[C@@H](C)[C@@H](O)[C@H]1C(=O)N[C@@H](CC)C(=O)N(C)[C@H](CO)C(=O)N(C)[C@@H](CC(C)C)C(=O)N[C@@H](C(C)C)C(=O)N(C)[C@@H](CC(C)C)C(=O)N[C@@H](C)C(=O)N[C@H](C)C(=O)N(C)[C@@H](CC(C)C)C(=O)N(C)[C@@H](CC(C)C)C(=O)N(C)[C@@H](C(C)C)C(=O)N1C [Example 69, trans-cyclosporin diene-d2] (cyclo([X1][Abu][dNMeS][NMeL]V[NMeL]A[dA][NMeL][NMeL][NMeV])) | 4 ng/mL
C=C/C=C/C[C@@H](C)[C@@H](O)[C@H]1C(=O)N[C@@H](CC)C(=O)N(C)[C@H](CO)C(=O)N(C)[C@@H](CC(C)C)C(=O)N[C@@H](C(C)C)C(=O)N(C)[C@@H](CC(C)C)C(=O)N[C@@H](C)C(=O)N[C@H](C)C(=O)N(C)[C@@H](CC(C)C)C(=O)N(C)[C@@H](CC(C)C)C(=O)N(C)[C@@H](C(C)C)C(=O)N1C [Example 67, trans-cyclosporin diene] (cyclo([X1][Abu][dNMeS][NMeL]V[NMeL]A[dA][NMeL][NMeL][NMeV])) | 7 ng/mL
CC[C@@H]1NC(=O)[C@H]([C@H](O)[C@H](C)C/C=C/I)N(C)C(=O)[C@H](C(C)C)N(C)C(=O)[C@H](CC(C)C)N(C)C(=O)[C@H](CC(C)C)N(C)C(=O)[C@@H](C)NC(=O)[C@H](C)NC(=O)[C@H](CC(C)C)N(C)C(=O)[C@H](C(C)C)NC(=O)[C@H](CC(C)C)N(C)C(=O)[C@@H](CO)N(C)C1=O [Example 72, cyclosporin vinyl iodide] (cyclo([X2][Abu][dNMeS][NMeL]V[NMeL]A[dA][NMeL][NMeL][NMeV])) | 5 ng/mL

Same assay, conditions: FIG. 1, concanavalin A stimulated splenocyte assay

SMILES | potency in immunosuppression compared to cyclosporin A
CC[C@@H]1NC(=O)[C@H]([C@H](O)[C@H](C)C/C=C/I)N(C)C(=O)[C@H](C(C)C)N(C)C(=O)[C@H](CC(C)C)N(C)C(=O)[C@H](CC(C)C)N(C)C(=O)[C@@H](C)NC(=O)[C@H](C)NC(=O)[C@H](CC(C)C)N(C)C(=O)[C@H](C(C)C)NC(=O)[C@H](CC(C)C)N(C)C(=O)CN(C)C1=O [Example 9, trans-deuterated cyclosporin vinyl iodide] | enhanced potency
CC[C@@H]1NC(=O)[C@H]([C@H](O)[C@H](C)C/C=C/Cl)N(C)C(=O)[C@H](C(C)C)N(C)C(=O)[C@H](CC(C)C)N(C)C(=O)[C@H](CC(C)C)N(C)C(=O)[C@@H](C)NC(=O)[C@H](C)NC(=O)[C@H](CC(C)C)N(C)C(=O)[C@H](C(C)C)NC(=O)[C@H](CC(C)C)N(C)C(=O)CN(C)C1=O [Example 11, trans-deuterated cyclosporin vinyl chloride] | enhanced potency
